The values below come from article PMC9416004, “A Versatile Class of 1,4,4-Trisubstituted Piperidines Block Coronavirus Replication In Vitro” (Pharmaceuticals, 2022).

One data set deals with SARS-CoV-2. Kind of data set: RT-qPCR-based SARS-CoV-2 viral load reduction assay in A549-AT cells. The class given is cell-based. Conditions: for Antiviral activity EC99: 100-fold reduction in viral RNA copies in supernatant at day 3 p.i.; for EC90: Severe acute respiratory syndrome coronavirus 2, 72 h, 10-fold reduction in viral RNA copies in supernatant at day 3 p.i., read-out: Antiviral activity EC90. (In general: In qPCR the cycle at which signal appears reflects the starting amount.)

A short description of data set [1]: in vitro. To be noted: human.
In data set [2] the test system is human embryonic lung (HEL) fibroblast cells. To be noted: mock-infected HEL cells; microscopically visible alterations in cell morphology.
Data set [3] can be described thus: in vitro. To be noted: human. The source holds these as a separate data set.
In data set [4] the test system is HCoV-229E. Kind of data set: Cytopathic effect (CPE) reduction assay with HCoV-229E in HEL cells. The class given is cell-based, human coronavirus 229E. Conditions: for EC50: Human coronavirus 229E, 120 h, HCoV-229E-infected HEL cells, five days at 35 °C; for Selectivity Index MTS: ratio of CC50 to EC50-MTS; for Selectivity Index MTS / Selectivity Index Microscopy: only values of 10 or higher shown; for Selectivity Index Microscopy: ratio of MCC to EC50-microscopy.

The target in data set [5] is SARS-CoV-2 nsp5 main protease (M^pro) (Severe acute respiratory syndrome coronavirus 2, UniProt P0DTD1). Put plainly: FRET-based M^pro enzymatic assay. The class given is biochemical. As for the experimental part:
Serial dilutions of the compounds were incubated with purified nsp5 protein in the presence of substrate (Dabcyl-KTSAVLQ↓SGFRKM-Edans-NH2), and peptide cleavage was followed by an increase in fluorescence. The compounds’ IC50 values were determined by Hill curve fitting. Values are the mean ± SEM (N = 3).
After transforming the pGEX-6P-1 plasmid in E. coli BL21 DE3 gold, nsp5 production was stimulated by overnight induction with 250 μM IPTG at a temperature of 17 °C. After centrifugation, the bacteria were resuspended in buffer consisting of: 50 mM Tris pH 8; 300 mM NaCl; 5 mM MgSO4; 1 mM PMSF; 10 μg/mL DNAse I; 0.25 mg/mL Lysozyme; 0.1%Triton X-100; and 10% glycerol. The cells were lysed by three cycles of sonication and centrifugation. The nsp5 protein was bound to Co-NTA agarose beads and eluted in lysis buffer containing 250 mM of imidazole. Next, the protein product was concentrated on a Vivaspin 20 centrifugal concentrator (10 kDa cut-off; GE Healthcare) and imidazole was removed by dialysis. Finally, the purified nsp5 was stored at −80 °C with 50% glycerol.
M^pro enzymatic assay. The fluorescence resonance energy transfer (FRET)-based protease assay was performed in black 384-well plates. Briefly, serial dilutions of the compounds were incubated with 80 nM nsp5 protein and 5 μM peptide substrate (Dabcyl-KTSAVLQ↓SGFRKM-Edans-NH2; Genscript) in buffer consisting of: 20 mM HEPES pH 6.5; 120 mM NaCl; 0.4 mM EDTA; 4 mM dithiothreitol; and 10% glycerol. The final DMSO content was 0.5%. Cleavage of the substrate was monitored for 40 min by measuring the increasing fluorescence in a Tecan Safire 2 plate reader (wavelength settings: excitation at 335 nm and emission at 493 nm). For each condition, enzyme activity was derived from the slope for the linear part of the curve and expressed relative to the activity in the condition receiving no compound. To determine the IC50 values, GraphPad Prism software was used to plot the % of enzyme activity against compound concentration and then fit the curves according to the equation Y = 100/(1 + (X/IC50)^HillSlope).

Data set [6] concerns HCoV-229E. Kind of data set: One-cycle time-of-compound addition (TOA) assay with HCoV-229E in HEL cells. The class given is cell-based, human coronavirus 229E.
The target of data set [7] is SARS-CoV-2 nsp14 N7-MTase (Severe acute respiratory syndrome coronavirus 2, UniProt P0DTD1). Kind of data set: Radioactive filter-binding MTase assay, nsp14. The class given is biochemical. To be noted: compound concentration of 200 µM.
Data set [8] concerns the target SARS-CoV-2 nsp10/nsp16 2'O-MTase (Severe acute respiratory syndrome coronavirus 2, UniProt P0DTD1). Kind of data set: Radioactive filter-binding MTase assay, nsp10/nsp16. The class given is biochemical. Conditions: compound concentration of 200 µM.
Where [9] appears, read: protection against virus-induced CPE by MTS cell viability assay, read-out: Antiviral EC50 MTS.
Setting [10] is: protection against virus-induced CPE by microscopic scoring, read-out: Antiviral EC50 Microscopy.
[11] abbreviates: compound added at 8 h p.i., HEL cells lysed at 16 h p.i., 33 15 µM, GC376 25 µM, GS-441524 20 µM, K22 15 µM.

Read-outs that look alike come from different tables or passages of the source. Bounds are passed on as bounds.

Broadly, the EC90 is the concentration needed for an effect of 90%. Broadly, the EC50 is the concentration at which the effect is half-maximal. The IC50 is the point on the concentration scale where inhibition reaches its midpoint. A lower IC50 goes with higher potency. Turning to `COC(=O)C[C@H](NC(=O)OCc1ccccc1)C(=O)N(Cc1ccccc1)C1(C(=O)NCc2ccccc2)CCN(Cc2ccccc2)CC1` [Compound 33], in the data set on SARS-CoV-2, the “Antiviral activity EC99” value was 14 µM and the 90% effect concentration (EC90) worked out at 9.3 µM. Also, the CC50 in the data set “in vitro [1]” is > 100 µM. Besides, the “Cytotoxicity MCC (minimal cytotoxic concentration)” value (from here on “Cytotoxicity MCC”) in data set [2] is listed as >100 µM. Moreover, in “in vitro [3]”, the CC50 worked out at 90 µM. For the same compound, the EC50 with HCoV-229E [4] (setting [9]) came out at 3.3 ± 0.4 µM. In the data set on HCoV-229E [4] (setting [10]), the EC50 was 3 ± 0.1 µM. Further, in the data set with HCoV-229E [4], the “Selectivity Index MTS” value is on record as >30 and the “Selectivity Index Microscopy” value was >33. In addition, in [5], the IC50 turned out to be 64 ± 8 µM. For the same compound, in the data set with HCoV-229E [6] (setting [11]), the “inhibition of viral RNA synthesis” value was “losing some activity”.
A word on the inhibition: it is the drop in the measured response relative to a control, in per cent. With `COC(=O)C[C@H](NC(=O)OCc1ccccc1)C(=O)N(Cc1ccc(F)cc1)C1(C(=O)NCc2ccccc2)CCN(Cc2ccccc2)CC1` [Compound 34], in data set [7], the inhibition at 200 µM worked out at 80%. In the data set with SARS-CoV-2, the “Antiviral activity EC99” value stood at 13 µM and the EC90 is 8 µM. Also, in [2], the “Cytotoxicity MCC” value is listed as 81 µM. Besides, the EC50 with HCoV-229E [4] (setting [9]) was 3.4 ± 0.4 µM. The EC50 in the data set with HCoV-229E [4] (setting [10]) amounted to 3.1 ± 0.1 µM. Moreover, in the data set on HCoV-229E [4], the “Selectivity Index MTS” value is given as 22 and the “Selectivity Index Microscopy” value was 26. Besides, inhibition in data set [5] was half-maximal at 38 ± 5 µM (IC50).
For `CC(C)(C)OC(=O)NC(Cc1ccccc1)C(=O)N(Cc1ccccc1)C1(C(=O)NCc2ccccc2)CCN(Cc2ccc(F)cc2)CC1` (stereo not shown) [Compound 60, Tert-butyl(1-(benzyl(4-benzylcarbamoyl-1-(4-fluorobenzyl)piperidin-4-yl)amino)-1-oxo-3-phenylpropan-2-yl)carbamate], in the data set on SARS-CoV-2, the “Antiviral activity EC99” value was determined as 5.2 µM and the EC90 amounted to 2.2 µM. Also, the “Cytotoxicity MCC” value in data set [2] is ≥100 µM. In the data set with HCoV-229E [4] (setting [9]), the concentration for a half-maximal effect (EC50) turned out to be 4 ± 0.1 µM. Besides, the EC50 with HCoV-229E [4] (setting [10]) was determined as 4.5 ± 0.2 µM. Moreover, the “Selectivity Index MTS” value in the data set on HCoV-229E [4] was >25. This compound had an IC50 in data set [5] of 68 ± 21 µM. Besides, the inhibition at 200 µM in [8] was 80%.
`O=C(N/C(=C\c1ccccc1)C(=O)N1CCC(O)(c2ccc(Br)cc2)CC1)c1ccccc1` [Compound K22, (Z)-N-[3-[4-(4-bromophenyl)-4-hydroxypiperidin-1-yl]-3-oxo-1-phenylprop-1-en-2-yl]benzamide, reference compound] came in with a CC50 in “in vitro [1]” of 28 ± 3 µM. Further, the “Cytotoxicity MCC” value in data set [2] was 50 µM. Moreover, the EC50 with HCoV-229E [4] (setting [9]) turned out to be 3.6 ± 0.6 µM; in the data set on HCoV-229E [4] (setting [10]) it was 2.6 ± 0.5 µM. Moreover, the “Selectivity Index Microscopy” value with HCoV-229E [4] is reported as 19. Also, the “inhibition of viral RNA synthesis” value with HCoV-229E [6] (setting [11]) came to 100%.
With `N#C[C@@]1(c2ccc3c(N)ncnn23)O[C@H](CO)[C@@H](O)[C@H]1O` [GS-441524, reference compound], in the data set with SARS-CoV-2, the “Antiviral activity EC99” value turned out to be 4.6 µM and the EC90 turned out to be 3.2 µM. The “Cytotoxicity MCC” value in [2] was >100 µM. The EC50 in the data set with HCoV-229E [4] (setting [9]) stood at 2.3 ± 0.2 µM. Moreover, the EC50 in the data set on HCoV-229E [4] (setting [10]) came out at 3.5 µM. Further, in the data set with HCoV-229E [4], the “Selectivity Index MTS” value was >43 and the “Selectivity Index Microscopy” value is reported as >29. Besides, the “inhibition of viral RNA synthesis” value in the data set with HCoV-229E [6] (setting [11]) was ~ 90%.
On to `CO/C1=C\C(C)=C\[C@@H](C)[C@@H](O)[C@@H](C)C/C(C)=C/C=C/[C@H](OC)[C@@H]([C@@H](C)[C@@H](O)[C@H](C)[C@@]2(O)C[C@@H](O)[C@H](C)[C@@H](C(C)C)O2)OC1=O` [bafilomycin], for which the “inhibition of viral RNA synthesis” value in the data set with HCoV-229E [6] is recorded as 9%.
